Legend:
[1] = test system: human airway smooth muscle (HASM) cells; assay: Magnetic twisting cytometry (MTC) of HASM cells: relaxation and desensitization; format: cell-based; details: 1.0 mM ALB or 100 mM C1-S as printed, then 10 μM ISO
Method: CHW cells were transfected to stably express the human β2AR under G418 selection and maintained in monolayers as previously described. Transient transfections of HEK-293T cells with constructs to express human β-arrestin2-myc, human β-arrestin2-GFP, human β2AR and β2AR-GFP, were performed using Lipofectamine 2000 (Invitrogen), and studied 48 hrs later. CHO cells stably expressing a modified β2AR and a modified β-arrestin2 for the ECA were purchased from DiscoverX. In some experiments, these cells were transiently transfected with 5 μg GRK2 cDNA. Primary HASM cells were derived from donor lungs obtained from the National Disease Exchange Registry and maintained as monolayers, and utilized between passages 3 and 6 for the physiological studies. […]
MTC was used to measure dynamic changes in the cytoskeletal stiffness as a surrogate for agonist-induced single-cell relaxation. […] Forced bead motions were detected optically with a spatial resolution of ˜5 nm, and their changes monitored, in real time, in response to b-agonist (HASM cell relaxation). […] The response to 10 μM isoproterenol (final concentration) added to the media was then determined every 1.3 sec. […] The greatest relaxation change from baseline observed at any point over the time course was utilized to quantify the maximal HASM response to isoproterenol.

ERK1/2 = ERK1/2 activation immunoblot in the presence of PKA inhibitor H89; format: cell-based, human; details: β2AR transfected HEK-293 cells; PKA inhibitor H89 present; vs vehicle control

Structure (SMILES) | desensitization of β2AR-mediated HASM cell relaxation response to ISO ([1]; 30 min pretreatment) | desensitization of β2AR-mediated HASM cell relaxation response to ISO ([1]; 4 hour pretreatment) | activation of ERK1/2 (ERK1/2)
CC(C)(C)NCC(O)c1ccc(O)c(CO)c1 (stereo not shown) [ALB, albuterol] | caused desensitization | caused desensitization | activation of ERK1/2
CC(C)NCC(O)c1ccc(O)c(O)c1 (stereo not shown) [ISO, isoproterenol] |  |  | activation of ERK1/2

From US12024502B2, “Biased adrenergic agonists” (University of South Florida, priority 2021, dated 2024)
